Common to all, as to assay type: physicochemical
Data set [1] in a line: Approximate solubility in 20 solvent systems at RT. The method, then: Approximate solubility of N-(3,5-difluorobenzyl)-N-hydroxy-2,2-dimethylbutanamide (817506-01-A) was measured in 20 solvent systems at RT. Approximately 2 mg of the sample was added into a 3-mL glass vial. Solvents as shown in Table 36 were then added stepwise (50/50/200/700/1000 μL) into the vials until the solids were dissolved visually or a total volume of 2 mL was reached. Solubility results summarized in Table 36 were used to guide the solvent selection in preparing the solid forms as disclosed herein.

Data set [2] can be described thus: Hygroscopicity, DVS isotherm at 25° C. between 0 and 95% RH. As for the experimental part:
To investigate the solid from stability as a function of humidity, a DVS isotherm plot of Type A (817506-48-A2) was collected at 25° C. between 0 and 95% RH. […] (onset) after the DVS test.
DVS was measured Via an SMS (Surface Measurement Systems) DVS Intrinsic. The relative humidity at 25° C. was calibrated against deliquescence point of LiCl. Mg(NO3)2 and KCl.

Data set [3] is described as follows: Solid state stability (XRPD, DSC, HPLC after storage). Particulars: for % of Initial: HPLC purity. As for the experimental part:
To evaluate the solid state stability, a Type A sample (817506-48-A2) was stored under 80° C. for one day, and 25° C./60% RH and 40° C./75% RH for one week each. […] DSC characterization results were shown from FIG. 35 to FIG. 37. Only one endotherm at about 95° C. was observed, indicating the solids under all the conditions were pure Type A.
(§1) An Agilent 1290 UPLC with DAD detector and Agilent 1260 HPLC with VWD detector were use and detailed chromatographic conditions for purity and solubility analysis are listed in Table 42 and Table 43.

The nature of data set [4]: Equilibrium solubility of Type A in H2O at RT. The method, then:
Equilibrium solubility of Type A in H2O was measured at RT. Specifically, 10.0 mg of a Type A sample (817506-48-A2) was suspended into 1 mL of H2O (˜1000 rpm) at RT. After 24 hrs, the suspension was centrifuged (10000 rpm, 5 min, RT) followed by filtration (0.45 μm PTFE membrane). The supernatant (first few drops were discarded) was analyzed for HPLC solubility and pH, and the residual solids were used for XRPD analysis.
as §1

Data set [5] is described as follows: Photo stability under white light and ultraviolet (ICH guideline). As for the experimental part:
Photo stability of Type A (817506-48-A2) was assessed under both white light (1,200,000 Lux-hrs) and ultraviolet (200 W·hrs/m^2) conditions according to the ICH guideline. […] Only an endotherm at about 95° C. was observed on the DSC curves (FIGS. 42-43).

The nature of data set [6]: Form conversion of Type C on vacuum drying (XRPD). Particulars: vacuum dried at 50° C. An excerpt: Type C of N-(3,5-difluorobenzyl)-N-hydroxy-2,2-dimethylbutanamide (817506-10-A10) was obtained via liquid vapor diffusion of a DMSO solution of a starting material (817506-01-A) in H2O atmosphere.
[7] abbreviates: White light (1,200,000 Lux-hrs).

Values after ≈ are worked out from the molar mass of the structure shown. “Also recorded” adds a separate entry of the source.

Broadly, the solubility is how much of the substance goes into solution per volume.

In the case of `CCC(C)(C)C(=O)N(O)Cc1cc(F)cc(F)c1` [N-(3,5-difluorobenzyl)-N-hydroxy-2,2-dimethylbutanamide], the solubility was more than 46 mg/mL in data set [1] (organic solvent or mixture, thermodynamic from solid, 1,4-Dioxane, RT); 2.2 to 7.3 mg/mL (≈ 8.55 to 28.4 mM) in data set [1] (organic solvent or mixture, thermodynamic from solid, 2-MeTHF, RT); more than 50 mg/mL in data set [1] (organic solvent or mixture, thermodynamic from solid, ACN, RT); more than 46 mg/mL in data set [1] (organic solvent or mixture, thermodynamic from solid, Acetone, RT); more than 50 mg/mL in data set [1] (organic solvent or mixture, thermodynamic from solid, CHCl3, RT); more than 50 mg/mL in data set [1] (organic solvent or mixture, thermodynamic from solid, DCM, RT). Also, the solubility is 21 to 42 mg/mL (≈ 81.6 to 163 mM) in data set [1] (organic solvent or mixture, thermodynamic from solid, DMAc, RT); more than 42 mg/mL in data set [1] (organic solvent or mixture, thermodynamic from solid, DMSO, RT); more than 44 mg/mL in data set [1] (organic solvent or mixture, thermodynamic from solid, EtOAc, RT); more than 40 mg/mL in data set [1] (organic solvent or mixture, thermodynamic from solid, EtOH, RT); more than 42 mg/mL in data set [1] (organic solvent or mixture, thermodynamic from solid, IPA, RT); more than 50 mg/mL in data set [1] (organic solvent or mixture, thermodynamic from solid, IPAC, RT). Besides, the solubility is more than 50 mg/mL in data set [1] (organic solvent or mixture, thermodynamic from solid, MIBK, RT); 2.3 to 7.7 mg/mL (≈ 8.94 to 29.9 mM) in data set [1] (organic solvent or mixture, thermodynamic from solid, MTBE, RT); more than 46 mg/mL in data set [1] (organic solvent or mixture, thermodynamic from solid, MeOH, RT); 2.4 to 48 mg/mL (≈ 9.33 to 187 mM) in data set [1] (organic solvent or mixture, thermodynamic from solid, NMP, RT); 25 to 50 mg/mL (≈ 97.2 to 194 mM) in data set [1] (organic solvent or mixture, thermodynamic from solid, THF, RT); 20 to 40 mg/mL (≈ 77.7 to 155 mM) in data set [1] (organic solvent or mixture, thermodynamic from solid, Toluene, RT). The solubility in data set [1] (organic solvent or mixture, thermodynamic from solid, n-Heptane, RT) was less than 1 mg/mL; in data set [1] (water, thermodynamic from solid, H2O, RT), less than 1.3 mg/mL.
`CCC(C)(C)C(=O)N(O)Cc1cc(F)cc(F)c1` [Type A, N-(3,5-difluorobenzyl)-N-hydroxy-2,2-dimethylbutanamide]: the water uptake (DVS plot) in data set [2] (25° C./80VRH) amounted to 0.1%. Besides, in data set [2] (80% RH/25° C.), the “water uptake (DVS)” value is given as “about 0.10%”. Also, in data set [2] (DVS at 25° C.), the hygroscopicity entry was “non-hygroscopic”. In data set [2] (XRPD before and after DVS), the “form change after the DVS test” value was “no form change”. The “Final Form” value in data set [3] (25° C./60% RH/1 w), in data set [3] (40° C./75% RH/1 w) and in data set [3] (80° C./1 d) was “Type A” throughout. In addition, the “% of Initial” value in data set [3] (25° C./60% RH/1 w), in data set [3] (40° C./75% RH/1 w) and in data set [3] (80° C./1 d) was 100.0% throughout. Besides, in data set [3] (all conditions: 80° C. one day, 25° C./60% RH and 40° C./75% RH one week each), the “form change or decrease in purity” value is on record as “No crystalline form change or HPLC purity decrease; also recorded: No form change or decrease in purity”. In addition, the Form change result in data set [4] (after suspending in H2O at RT for about 24 hrs, XRPD of residual solids) is “no crystalline type change and no form change and No”. The molecule further showed a pH in data set [4] (supernatant after suspension in H2O at RT for 24 hrs) of 8.7. The molecule also displayed a solubility at 24 h in data set [4] (water, thermodynamic from solid, equilibrium solubility in H2O, RT, 24 hrs, HPLC) of approximately 0.15 mg/mL (≈ 0.583 mM). The Form result in data set [5] (UV (200 W·hrs/m^2)) and in data set [5] (setting [7]) was “Type A” in each case. Moreover, the “Purity (area %)” value in data set [5] (UV (200 W·hrs/m^2)) and in data set [5] (setting [7]) was 100.0 area % each time. Further, in data set [5] (both white light and ultraviolet, XRPD and DSC), the “form change after photo stability evaluation” value was “No crystalline form change or HPLC purity decrease; also recorded: no form change”. Also, in data set [5] (white light and ultraviolet, HPLC), the “purity decrease after photo stability evaluation” value is “no purity decrease”.
`CCC(C)(C)C(=O)N(O)Cc1cc(F)cc(F)c1` [Type C, N-(3,5-difluorobenzyl)-N-hydroxy-2,2-dimethylbutanamide]: the form after drying entry in data set [6] is “converted to Type A”.
